Data on two compounds can be found in ChEMBL document CHEMBL1152592, “Design, synthesis and biological evaluations of novel 7-[3-(1-aminocycloalkyl)pyrrolidin-1-yl]-6-desfluoro-8-methoxyquinolones with potent antibacterial activity against multi-drug resistant Gram-positive bacteria” (Bioorg Med Chem, 2009).

Molecules are shown by their SMILES. Values after ≈ are worked out from the molar mass of the structure shown.

Data set [1] deals with Staphylococcus aureus. Description: Antibacterial activity against Staphylococcus aureus FDA 209-P after 18 hrs by twofold microbroth dilution method. It counts as functional. On the technique in general: Dilution methods test growth across graded concentrations, often in twofold steps.
Data set [2] concerns Staphylococcus epidermidis. Description: Antibacterial activity against Staphylococcus epidermidis 56500 after 18 hrs by twofold microbroth dilution method. Conditions: Staphylococcus epidermidis, 56500, 18 h. It counts as functional.
The next data set relates to Streptococcus pneumoniae. Briefly: Antibacterial activity against Streptococcus pneumoniae J-24 after 18 hrs by twofold microbroth dilution method. It counts as functional. The following applies: J-24, 18 h.
In the next data set the test system is Streptococcus pyogenes. Description: Antibacterial activity against Streptococcus pyogenes G-36 after 18 hrs by twofold microbroth dilution method. It counts as functional. The following applies: G-36, 18 h.
A further data set has as its system Streptococcus mitis. Briefly: Antibacterial activity against Streptococcus mitis IID685 after 18 hrs by twofold microbroth dilution method. Conditions: IID685, 18 h. It counts as functional.
The next data set concerns Enterococcus faecalis. Description: Antibacterial activity against Enterococcus faecalis ATCC 19433 after 18 hrs by twofold microbroth dilution method. The following applies: ATCC19433, 18 h. Format: functional.
A further data set has as its system Escherichia coli. Description: Antibacterial activity against Escherichia coli NIHJ after 18 hrs by twofold microbroth dilution method. Format: functional.
A further data set has as its system Klebsiella pneumoniae. Briefly: Antibacterial activity against Klebsiella pneumoniae type 2 after 18 hrs by twofold microbroth dilution method. Format: functional. Conditions: type 2, 18 h.
For the next data set, the system named is Pseudomonas aeruginosa. Description: Antibacterial activity against Pseudomonas aeruginosa PAO1 after 18 hrs by twofold microbroth dilution method. Format: functional. The following applies: PAO1, 18 h.
The subject of data set [3] is Mus musculus. Description: Toxicity in Slc:ddY mouse at 100 mg/kg, iv. Format: organism-based. Conditions: in vivo. The arrangement: dose 100 mg/kg, route intravenous.
Data set [4] relates to Mus musculus. Description: Toxicity in Slc:ddY mouse assessed as micronucleated reticulocyte in blood at 100 mg/kg, iv after 48 hrs of treatment by fluorescence microscopy. Format: organism-based. The arrangement: dose 100 mg/kg, route intravenous. Conditions: in vivo.
Data set [5] in a line: Aqueous […] of the compound. It counts as physicochemical. Conditions: aqueous (not further specified).
For data set [6], the system named is Mus musculus. Description: Toxicity in Slc:ddY mouse at 150 mg/kg, iv. Format: organism-based. The arrangement: dose 150 mg/kg, route intravenous. Conditions: in vivo.
Data set [7] has as its system Mus musculus. Briefly: Toxicity in Slc:ddY mouse at 50 mg/kg, iv. Format: organism-based. The arrangement: dose 50 mg/kg, route intravenous. The following applies: in vivo.
Data set [8] concerns Mus musculus. Briefly: Toxicity in Slc:ddY mouse assessed as micronucleated reticulocyte in blood at 50 mg/kg, iv after 48 hrs of treatment by fluorescence microscopy. It counts as organism-based. Conditions: in vivo. Also on record: dose 50 mg/kg, route intravenous.
The test system of data set [9] is Staphylococcus aureus. Description: Antibacterial activity against levofloxacin, methicillin-resistant Staphylococcus aureus after 18 hrs by twofold microbroth dilution method. It counts as functional.

The term MIC denotes the smallest concentration in the dilution series that meets the test's criterion for growth inhibition. A higher MIC goes with a need for much substance. In general, solubility refers to the dissolved amount per volume that the medium holds. Lower therefore signals little dissolved substance. As for `CNC1([C@@H]2CCN(c3ccc4c(=O)c(C(=O)O)cn([C@@H]5C[C@@H]5F)c4c3OC)C2)CC1`, the MIC was no more than 0.003 µg/mL in the data set with Staphylococcus aureus [1]; 0.012 µg/mL (≈ 0.0289 µM) in data set [2]; 0.006 µg/mL (≈ 0.0144 µM) with Streptococcus pneumoniae; 0.012 µg/mL (≈ 0.0289 µM) in the data set on Streptococcus pyogenes; 0.003 µg/mL (≈ 0.00722 µM) against Streptococcus mitis; 0.05 µg/mL (≈ 0.12 µM) in the data set with Enterococcus faecalis. For the same compound, the MIC against Escherichia coli was 0.006 µg/mL (≈ 0.0144 µM); in the data set with Klebsiella pneumoniae, 0.05 µg/mL (≈ 0.12 µM); against Pseudomonas aeruginosa, 0.39 µg/mL (≈ 0.939 µM). The Activity entry in the data set on Mus musculus [3] and with Mus musculus [4] was “Non-toxic” each time. The compound further came in with a solubility in data set [5] of 161 µg/mL (≈ 388 µM).
By MIC50 is commonly meant an inhibitory concentration at the 50% level, which refers to growth in some studies and to a panel of isolates in others. As a reminder, the MIC80 is an inhibitory concentration at the 80% level, which refers to growth in some studies and to a panel of isolates in others. By MIC90 is commonly meant the lowest concentration that inhibits either 90% of growth or 90% of the strains tested, depending on the study. A high value points to lower susceptibility. Consider `COc1c(N2CC[C@@H]([C@H](C)N)C2)ccc2c(=O)c(C(=O)O)cn(C3CC3)c12`, for which the MIC is no more than 0.003 µg/mL with Staphylococcus aureus [1]; 0.006 µg/mL (≈ 0.0162 µM) in data set [2]; no more than 0.003 µg/mL in the data set on Streptococcus pneumoniae; 0.012 µg/mL (≈ 0.0323 µM) against Streptococcus pyogenes; 0.006 µg/mL (≈ 0.0162 µM) against Streptococcus mitis; 0.05 µg/mL (≈ 0.135 µM) against Enterococcus faecalis. For the same compound, the MIC was 0.012 µg/mL (≈ 0.0323 µM) against Escherichia coli, 0.1 µg/mL (≈ 0.269 µM) against Klebsiella pneumoniae and 0.2 µg/mL (≈ 0.538 µM) with Pseudomonas aeruginosa. Further, the Activity entry is “Toxic” in the data set with Mus musculus [6], “Toxic” with Mus musculus [3], “Non-toxic” with Mus musculus [7] and “Toxic” with Mus musculus [8]. In [5], this compound registered a solubility greater than 10000 µg/mL. The compound further gave an MIC50 against Staphylococcus aureus [9] of 0.5 µg/mL (≈ 1.35 µM). Moreover, in the data set on Staphylococcus aureus [9], the MIC80 came out at 8 µg/mL (≈ 21.5 µM). For the same compound, in the data set with Staphylococcus aureus [9], the MIC90 came out at 8 µg/mL (≈ 21.5 µM).
